Laboratory results taken from US7605265B2, “Heterodimers and methods of using them” (priority 2007, dated 2009).

Assays:
transient focal ischemia = assay: MCAO (middle carotid artery occlusion model), transient focal ischemia; assay type: in vivo, mice
Experimental: The MCAO (middle carotid artery occlusion model) was performed to investigate the protective effects of compounds A, B and C on the brain when the brain was exposed to transient focal ischemia (lack of oxygen), emulating brain conditions during a stroke. […] The ability of the novel compounds to protect against the appearance of these neurological deficits was examined using a four-point scale neurological scoring system (Mann Whitney U test). For each of the following observable signs, the distribution of test subjects was noted (with and without treatment with the invention after ischemia): (0) no observable neurological deficits (normal); (1) failure to extend the left forepaw fully (mild); (2) circling to the contralateral side (moderate); and (3) loss of walking and righting reflex (severe). • (ii) The brains of the test subjects slices were sectioned into five pieces and the infarct area and volume of each slice was measured. The % of infarct area in test subjects treated with the invention after ischemia was compared to that of the control group for each brain slice. • (iii) Hemispheric brain swelling and infarct volume (the area of dead tissue caused by inadequate blood supply) was measured for test subjects treated with the invention after ischemia, and compared to that of the control group.
The compounds were administered 5 minutes after ischemia, 5 minutes after reperfusion, or 6 hours after ischemia. FIGS. 5a to 5f show results for the heterodimers compound B, C or A respectively, when administered 5 minutes after ischemia or reperfusion. FIGS. 5g and 5h show the results when the novel heterodimers were administered 6 hours after ischemia.
Compound B was administered at 5 minutes after ischemia. Distribution of neurological scores based on a four-point scale neurological scoring system (Mann Whitney U test): (0) no observable neurological deficits (normal); (1) failure to extend the left forepaw fully (mild); (2) circling to the contralateral side (moderate); and (3) loss of walking and righting reflex (severe).
The brain was sectioned into five pieces, each 2-mm thick. The infarct area of each posterior surface was analyzed by an image analysis program. The percentage of infarct area and volume were calculated and presented as the percentage of the infarct area of the contralateral hemisphere to eliminate the contribution of edema to the ischemic lesion.
The infarct area of each posterior surface was analyzed by an image analysis program. Hemispheric brain swelling was calculated as follows (ipsilateral volume−contralateral volume)/contralateral volume×100%.

[1] = biological target: T1, acetylcholinesterase (AChE) (Rattus norvegicus, UniProt P37136); assay: In vitro inhibition of AChE (cholinesterase assay, Ellman method); assay type: biochemical
T1 construct: from tissue; host or cells: rat brain cortex
T1 sequence (P37136 32-614): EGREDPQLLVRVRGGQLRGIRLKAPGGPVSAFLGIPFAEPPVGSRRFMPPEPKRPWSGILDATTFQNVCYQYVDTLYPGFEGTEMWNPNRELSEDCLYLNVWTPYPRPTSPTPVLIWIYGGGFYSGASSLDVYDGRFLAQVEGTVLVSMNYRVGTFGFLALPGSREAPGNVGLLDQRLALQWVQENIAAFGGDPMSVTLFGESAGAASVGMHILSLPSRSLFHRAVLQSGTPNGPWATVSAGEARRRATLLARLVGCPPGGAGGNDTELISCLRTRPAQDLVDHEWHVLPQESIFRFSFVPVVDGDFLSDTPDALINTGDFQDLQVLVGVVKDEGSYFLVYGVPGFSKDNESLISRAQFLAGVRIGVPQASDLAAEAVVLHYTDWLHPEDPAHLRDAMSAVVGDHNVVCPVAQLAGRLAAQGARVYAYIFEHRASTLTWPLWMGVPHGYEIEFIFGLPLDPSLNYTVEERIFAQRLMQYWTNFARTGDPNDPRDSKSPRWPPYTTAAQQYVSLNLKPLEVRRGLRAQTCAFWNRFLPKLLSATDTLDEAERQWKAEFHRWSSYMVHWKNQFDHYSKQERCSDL
Experimental: The in vitro inhibition of the enzymes acetylcholinesterase (AChE) and butyrylcholinesterase (BChE) were assessed. BChE, like AChE, breaks down acetylcholine (ACh) but is found in plasma and other organs such as the liver, skin and gastrointestinal tract.
The enzymes, AChE and BChE, used in the inhibition studies were prepared from the cortex and serum of decapitated rats, respectively.

NMDA receptor = biological target: T2, NMDA receptor (Rattus norvegicus, UniProt P35439); assay: Whole cell patch clamp, NMDA-induced current in hippocampal neurons; assay type: cell-based; conditions: DIV10-14 rat hippocampal neurons, NMDA 50 μM, compound 10 μg/mL; FIG. 1
T2 construct: Hippocampal neurons from embryonic day 18 rats were isolated, trypsinized, plated onto 35-mm plates; endogenous in cells; host or cells: primary hippocampal neurons from embryonic day 18 rats, DIV10-14
Experimental: The NMDA receptor is a gated ion channel, which allows inflow of current during a nerve impulse. Antagonists to the receptor would prevent the inflow of current. Memantine, a known NMDA antagonist was used as the positive control.
Hippocampal neurons from embryonic day 18 rats were isolated, trypsinized, plated onto 35-mm plates at a density of 3×10^4 cells/plate and cultured in Neurobasal medium (NB) supplemented with B27 nutrient. DIV10-14 rat hippocampal neurons were treated with NMDA (50 μM) in the absence or presence of the novel compounds (Cpd A, B and C) (10 μg/mL). Data is presented as % of NMDA-induced current. DMSO is the solvent control.

[2] = 0.005 mg/kg, 5 minutes after ischemia
[3] = 0.05 mg/kg, 5 minutes after ischemia
[4] = 0.1 mg/kg, 5 minutes after ischemia
[5] = 0.2 mg/kg, 5 minutes after ischemia

SMILES: O=c1ccc2c([nH]1)CCC(NCCCNc1c3c(nc4cc(Cl)ccc14)CCCC3)C2 (stereo not drawn) [Compound A]
- % Infarct area in brain slice # 1 (transient focal ischemia; [2]): 2.2 ± 2.0%
- % Infarct area in brain slice # 2 (transient focal ischemia; [2]): 48.8 ± 4.3%
- % Infarct area in brain slice # 3 (transient focal ischemia; [2]): 49.3 ± 4.4%
- % Infarct area in brain slice # 4 (transient focal ischemia; [2]): 26.5 ± 9.3%
- % Infarct area in brain slice # 5 (transient focal ischemia; [2]): −4.3 ± 0.6%
- Hemispheric swelling (%) (transient focal ischemia; [2]): 10.3 ± 0.4%
- Infarct volume (%) (transient focal ischemia; [2]): 31.3 ± 4.3%
- Observed Neurological Deficits Mean ± SEM (transient focal ischemia; [2]): 1.6 ± 0.2
- Observed Neurological Deficits, score 0 (number of animals) (transient focal ischemia; [2]): 0
- Observed Neurological Deficits, score 1 (number of animals) (transient focal ischemia; [2]): 2
- Observed Neurological Deficits, score 2 (number of animals) (transient focal ischemia; [2]): 3
- Observed Neurological Deficits, score 3 (number of animals) (transient focal ischemia; [2]): 0
- n (dead/total): dead/total (transient focal ischemia; [2]): 5 (5/10)
- % Infarct area in brain slice # 1 (transient focal ischemia; [3]): −0.4 ± 2.2%
- % Infarct area in brain slice # 2 (transient focal ischemia; [3]): 39.1 ± 2.4 %
- % Infarct area in brain slice # 3 (transient focal ischemia; [3]): 44.5 ± 0.9 %
- % Infarct area in brain slice # 4 (transient focal ischemia; [3]): 17.1 ± 3.2 %
- % Infarct area in brain slice # 5 (transient focal ischemia; [3]): −6.3 ± 2.8%
- Hemispheric swelling (%) (transient focal ischemia; [3]): 15.5 ± 1.1%
- Infarct volume (%) (transient focal ischemia; [3]): 24.8 ± 1.1 %
- Observed Neurological Deficits Mean ± SEM (transient focal ischemia; [3]): 1.2 ± 0.2
- Observed Neurological Deficits, score 0 (number of animals) (transient focal ischemia; [3]): 0
- Observed Neurological Deficits, score 1 (number of animals) (transient focal ischemia; [3]): 5
- Observed Neurological Deficits, score 2 (number of animals) (transient focal ischemia; [3]): 1
- Observed Neurological Deficits, score 3 (number of animals) (transient focal ischemia; [3]): 0
- n (dead/total): dead/total (transient focal ischemia; [3]): 6 (1/7)
- % Infarct area in brain slice # 1 (transient focal ischemia; [4]): 2.0 ± 1.8%
- % Infarct area in brain slice # 2 (transient focal ischemia; [4]): 49.5 ± 2.0 %
- % Infarct area in brain slice # 3 (transient focal ischemia; [4]): 48.4 ± 1.8 %
- % Infarct area in brain slice # 4 (transient focal ischemia; [4]): 10.4 ± 3.3 %
- % Infarct area in brain slice # 5 (transient focal ischemia; [4]): −9.9 ± 1.7%
- Hemispheric swelling (%) (transient focal ischemia; [4]): 12.5 ± 1.1%
- Infarct volume (%) (transient focal ischemia; [4]): 26.5 ± 1.4 %
- Observed Neurological Deficits Mean ± SEM (transient focal ischemia; [4]): 1.2 ± 0.1
- Observed Neurological Deficits, score 0 (number of animals) (transient focal ischemia; [4]): 0
- Observed Neurological Deficits, score 1 (number of animals) (transient focal ischemia; [4]): 7
- Observed Neurological Deficits, score 2 (number of animals) (transient focal ischemia; [4]): 2
- Observed Neurological Deficits, score 3 (number of animals) (transient focal ischemia; [4]): 0
- n (dead/total): dead/total (transient focal ischemia; [4]): 9 (4/13)
- % Infarct area in brain slice # 1 (transient focal ischemia; [5]): 1.3 ± 0.7%
- % Infarct area in brain slice # 2 (transient focal ischemia; [5]): 44.7 ± 6.6%
- % Infarct area in brain slice # 3 (transient focal ischemia; [5]): 49.0 ± 3.8%
- % Infarct area in brain slice # 4 (transient focal ischemia; [5]): 37.3 ± 3.8%
- % Infarct area in brain slice # 5 (transient focal ischemia; [5]): −3.3 ± 1.6%
- Hemispheric swelling (%) (transient focal ischemia; [5]): 15.2 ± 1.2%
- Infarct volume (%) (transient focal ischemia; [5]): 33.8 ± 1.6%
- Observed Neurological Deficits Mean ± SEM (transient focal ischemia; [5]): 1.9 ± 0.7
- Observed Neurological Deficits, score 0 (number of animals) (transient focal ischemia; [5]): 0
- Observed Neurological Deficits, score 1 (number of animals) (transient focal ischemia; [5]): 2
- Observed Neurological Deficits, score 2 (number of animals) (transient focal ischemia; [5]): 4
- Observed Neurological Deficits, score 3 (number of animals) (transient focal ischemia; [5]): 1
- n (dead/total): dead/total (transient focal ischemia; [5]): 7 (4/11)
- infarct area (in words) (transient focal ischemia; 0.05 and 0.1 mg/kg, 5 minutes after ischemia, FIG. 5e): improvement in the infarct area
- infarct volume and hemispheric swelling (in words) (transient focal ischemia; 5 minutes after ischemia (compound A: 0.05 and 0.1 mg/kg), FIG. 5b, 5f): decreases infarct volume but not hemispheric swelling
- neurological deficits induced by ischemia (in words) (transient focal ischemia; administered 5 minutes after ischemia): reduced neurological deficits induced by ischemia
- times more potent than bis(7)-tacrine ([1]; AChE inhibition): ~53
- times more potent than tacrine ([1]; AChE inhibition): ~200
- Selectivity AchE* ([1]; IC50 (BChE)/IC50 (AChE)): 227.23
- IC50 ([1]; enzyme prepared from rat cortex): 0.25 ± 0.05 nM
- NMDA-induced current (NMDA receptor): decreased NMDA-induced current in hippocampal neurons
